Measurements: ChEMBL document CHEMBL1144207, “Molecular design of potent tyrosinase inhibitors having the bibenzyl skeleton” (Bioorg Med Chem Lett, 2008)

Molecular target: T1, Tyrosinase (Agaricus bisporus, UniProt O42713)
T1 sequence (O42713 whole entry): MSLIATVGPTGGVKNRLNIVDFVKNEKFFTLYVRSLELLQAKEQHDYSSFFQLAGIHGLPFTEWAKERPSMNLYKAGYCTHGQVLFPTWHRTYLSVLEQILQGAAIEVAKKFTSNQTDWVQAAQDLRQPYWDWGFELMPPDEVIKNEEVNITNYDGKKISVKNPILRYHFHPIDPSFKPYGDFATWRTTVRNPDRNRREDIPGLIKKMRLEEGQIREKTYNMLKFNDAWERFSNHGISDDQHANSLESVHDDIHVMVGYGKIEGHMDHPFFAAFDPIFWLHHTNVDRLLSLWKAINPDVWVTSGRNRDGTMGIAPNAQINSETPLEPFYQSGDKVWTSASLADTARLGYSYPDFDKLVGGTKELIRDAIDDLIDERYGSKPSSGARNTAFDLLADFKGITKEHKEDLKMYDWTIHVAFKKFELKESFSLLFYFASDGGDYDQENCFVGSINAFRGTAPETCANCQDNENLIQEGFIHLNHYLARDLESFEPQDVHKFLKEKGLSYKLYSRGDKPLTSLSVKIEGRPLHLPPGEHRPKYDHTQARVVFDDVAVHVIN
Description: Inhibition of mushroom tyrosinase

IC50 [µM] | Compound
1.6 | Oc1ccc(CCc2ccc(O)cc2O[C@@H]2OC[C@@H](O)[C@H](O)[C@H]2O)c(O)c1
0.43 | Oc1ccc(CCc2ccc(O[C@@H]3OC[C@@H](O)[C@H](O)[C@H]3O)cc2O)c(O)c1
